Measurements reported in US12187742B2 (XRAD Therapeutics, Inc., priority 2018, dated 2025).
Structures can show the parent of a compound that is named as a salt.

Each compound was assayed against ATM (Homo sapiens (Human), UniProt Q13315) (assay: ATM in Cell Western Assay (pKAP1 in etoposide-treated MCF-7 cells)). Conditions: MCF-7 cells, etoposide 100 μM, 1 hr, pKAP1 readout.
Assay type: cell-based
In short: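 After paraformaldehyde fixation and Triton X-100 permeabilization, immunostained plates were read by infrared scanning (ODYSSEY CLx). Compound was given as 10 doses, 3-fold dilutions from a 1 μM final top concentration.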

Chain of ATM (Q13315 whole entry): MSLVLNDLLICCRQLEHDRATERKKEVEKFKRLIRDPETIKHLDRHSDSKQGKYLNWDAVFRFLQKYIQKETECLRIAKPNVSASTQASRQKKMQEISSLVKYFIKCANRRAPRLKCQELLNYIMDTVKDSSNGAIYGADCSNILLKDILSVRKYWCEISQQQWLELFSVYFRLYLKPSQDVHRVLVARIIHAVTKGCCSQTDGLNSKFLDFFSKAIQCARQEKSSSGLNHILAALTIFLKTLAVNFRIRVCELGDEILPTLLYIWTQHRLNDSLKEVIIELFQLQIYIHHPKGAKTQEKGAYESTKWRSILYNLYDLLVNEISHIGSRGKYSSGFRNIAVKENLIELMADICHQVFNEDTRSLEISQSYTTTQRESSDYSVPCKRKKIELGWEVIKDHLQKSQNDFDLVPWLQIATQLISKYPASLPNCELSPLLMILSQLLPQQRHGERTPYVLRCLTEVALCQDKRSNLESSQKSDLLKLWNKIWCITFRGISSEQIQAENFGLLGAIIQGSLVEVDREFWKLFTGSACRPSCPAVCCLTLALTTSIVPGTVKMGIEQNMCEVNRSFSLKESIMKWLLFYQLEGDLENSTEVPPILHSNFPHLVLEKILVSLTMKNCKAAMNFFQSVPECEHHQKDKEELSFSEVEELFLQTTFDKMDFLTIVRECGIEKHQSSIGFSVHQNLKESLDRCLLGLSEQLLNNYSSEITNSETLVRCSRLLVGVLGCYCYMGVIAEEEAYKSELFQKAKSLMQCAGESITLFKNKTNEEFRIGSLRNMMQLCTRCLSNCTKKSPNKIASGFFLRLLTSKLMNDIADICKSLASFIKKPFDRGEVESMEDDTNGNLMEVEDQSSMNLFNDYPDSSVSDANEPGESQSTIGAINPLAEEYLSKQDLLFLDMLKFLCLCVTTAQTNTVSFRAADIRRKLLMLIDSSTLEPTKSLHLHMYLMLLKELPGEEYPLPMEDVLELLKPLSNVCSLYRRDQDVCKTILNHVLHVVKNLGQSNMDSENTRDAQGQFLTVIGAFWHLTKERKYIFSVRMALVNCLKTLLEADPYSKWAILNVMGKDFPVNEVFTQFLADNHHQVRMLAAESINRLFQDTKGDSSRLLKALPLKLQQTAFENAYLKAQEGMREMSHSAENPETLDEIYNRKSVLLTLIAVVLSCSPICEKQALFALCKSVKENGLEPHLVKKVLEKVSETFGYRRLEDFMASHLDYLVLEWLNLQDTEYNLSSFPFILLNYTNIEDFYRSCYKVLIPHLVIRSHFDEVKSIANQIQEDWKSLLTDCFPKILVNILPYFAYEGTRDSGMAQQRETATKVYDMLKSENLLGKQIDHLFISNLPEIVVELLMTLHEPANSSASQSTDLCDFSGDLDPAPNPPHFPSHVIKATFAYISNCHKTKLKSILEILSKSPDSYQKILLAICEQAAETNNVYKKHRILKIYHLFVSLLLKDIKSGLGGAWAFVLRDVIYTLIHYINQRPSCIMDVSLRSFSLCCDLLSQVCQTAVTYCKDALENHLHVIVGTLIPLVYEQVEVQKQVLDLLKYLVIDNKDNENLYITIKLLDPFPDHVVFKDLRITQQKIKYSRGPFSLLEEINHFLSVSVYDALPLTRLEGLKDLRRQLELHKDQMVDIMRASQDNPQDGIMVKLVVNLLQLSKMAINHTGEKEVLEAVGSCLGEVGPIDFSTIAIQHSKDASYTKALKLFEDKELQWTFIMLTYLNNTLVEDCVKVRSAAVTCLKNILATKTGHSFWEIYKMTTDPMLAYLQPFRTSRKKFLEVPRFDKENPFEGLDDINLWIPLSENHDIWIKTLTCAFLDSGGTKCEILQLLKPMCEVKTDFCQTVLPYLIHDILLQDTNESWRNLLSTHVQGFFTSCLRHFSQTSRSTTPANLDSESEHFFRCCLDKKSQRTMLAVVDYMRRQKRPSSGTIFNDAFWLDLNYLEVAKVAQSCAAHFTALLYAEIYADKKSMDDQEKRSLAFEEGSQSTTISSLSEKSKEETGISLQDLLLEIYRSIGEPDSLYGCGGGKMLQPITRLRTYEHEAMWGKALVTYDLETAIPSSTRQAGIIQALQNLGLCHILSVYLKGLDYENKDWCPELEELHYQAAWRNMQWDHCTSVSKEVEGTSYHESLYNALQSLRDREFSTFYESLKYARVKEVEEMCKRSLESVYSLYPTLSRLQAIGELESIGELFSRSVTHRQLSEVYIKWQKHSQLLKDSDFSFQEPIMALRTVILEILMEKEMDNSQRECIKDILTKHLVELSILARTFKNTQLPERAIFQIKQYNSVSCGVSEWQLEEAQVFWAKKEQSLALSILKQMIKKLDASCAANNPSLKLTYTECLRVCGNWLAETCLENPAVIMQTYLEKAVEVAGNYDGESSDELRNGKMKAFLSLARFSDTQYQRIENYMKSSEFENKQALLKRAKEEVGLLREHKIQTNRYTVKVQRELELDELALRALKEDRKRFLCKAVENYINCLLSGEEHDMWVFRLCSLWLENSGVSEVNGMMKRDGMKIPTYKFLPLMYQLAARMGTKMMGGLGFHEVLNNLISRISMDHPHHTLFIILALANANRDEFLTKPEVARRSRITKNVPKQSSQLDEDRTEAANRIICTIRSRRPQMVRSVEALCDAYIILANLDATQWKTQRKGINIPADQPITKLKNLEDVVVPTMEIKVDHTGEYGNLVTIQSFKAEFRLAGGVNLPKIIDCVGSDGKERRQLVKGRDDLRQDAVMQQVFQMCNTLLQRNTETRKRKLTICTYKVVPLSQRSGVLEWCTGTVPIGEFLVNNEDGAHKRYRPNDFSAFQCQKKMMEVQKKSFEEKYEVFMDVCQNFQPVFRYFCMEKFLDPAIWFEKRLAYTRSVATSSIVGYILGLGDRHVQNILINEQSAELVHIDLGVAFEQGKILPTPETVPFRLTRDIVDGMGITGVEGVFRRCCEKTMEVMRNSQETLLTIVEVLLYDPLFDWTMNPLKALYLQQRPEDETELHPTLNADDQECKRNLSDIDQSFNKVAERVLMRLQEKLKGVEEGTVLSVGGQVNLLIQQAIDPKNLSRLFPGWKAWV

`CN1C(=O)C2(CC2)c2c1cnc1ccc(-c3cnc4ccccc4c3)cc21` [Example 20, 3′-Methyl-8′-(quinolin-3-yl)spiro[cyclopropane-1,1′-pyrrolo[2,3-c]quinolin]-2′(3′-H)-one] and `CN1C(=O)C2(CC2)c2c1cnc1ccc(-c3ccc4nccnc4c3)cc21` [Example 39, 3′-Methyl-8′-(quinoxalin-6-yl)spiro[cyclopropane-1,1′-pyrrolo[2,3-c]quinolin]-2′(3′-H)-one] cannot be ordered by IC50: over 0.1 µM for the first, over 0.1 µM for the second.

`CCN1C(=O)C2(CCC2)c2c1cnc1ccc(-c3cnc(N4CC(N(C)C)C4)c(NS(C)(=O)=O)c3)cc21` [Example 336, N-(2-(3-(Dimethylamino)azetidin-1-yl)-5-(3′-ethyl-2′-oxo-2′,3′-dihydrospiro [cyclobutane-1,1′-pyrrolo[2,3-c]quinolin]-8′-yl)pyridin-3-yl) methanesulfonamide] and `CN(C)CCCOc1ncc(-c2ccc3ncc4c(c3c2)C2(CC2)C(=O)N4C)cc1NS(=O)(=O)c1cccnc1` [Example 85] fall in the same range of IC50: 0.001 to 0.1 µM for the first, 0.001 to 0.1 µM for the second.

Compound `COc1ccc2cc(-c3ccc4ncc5c(c4c3)C3(CC3)C(=O)N5C)ccc2n1` [Example 44, 8′-(2-Methoxyquinolin-6-yl)-3′-methylspiro [cyclopropane-1,1′-pyrrolo[2,3-c]quinolin]-2′(3′-H)-one] has an IC50 of over 0.1 µM.

Same assay, conditions: pKAP1 in etoposide-treated MCF-7 cells

`CN1C(=O)C2(CCC2)c2c1cnc1ccc(-c3cnc(N4CC5CN(C(=O)OC(C)(C)C)CC5C4)c(NS(C)(=O)=O)c3)cc21` (stereo not shown) [Example 348, tert-Butyl 5-(5-(3′-methyl-2′-oxo-2′,3′-dihydrospiro [cyclobutane-1,1′-pyrrolo[2,3-c]quinolin]-8′-yl)-3-(methylsulfonamido)pyridin-2-yl) hexahydropyrrolo [3,4-c] pyrrole-2(1H)-carboxylate] and `CN1C(=O)C2(CCC2)c2c1cnc1cc(F)c(-c3cnc(N4CC(CN5CCOCC5)C4)c(NS(C)(=O)=O)c3)cc21` [Example 344, N-(5-(7′-Fluoro-3′-methyl-2′-oxo-2′,3′-dihydrospiro[cyclobutane-1,1′-pyrrolo[2,3-c]quinolin]-8′-yl)-2-(3-(morpholinomethyl)azetidin-1-yl)pyridin-3-yl)methanesulfonamideformate] cannot be ordered by IC50: over 0.1 µM for the first, over 0.1 µM for the second.

`CC(C)NCCOc1ncc(-c2cc3c(cc2F)ncc2c3[C@]3(C[C@@H](COC(C)C)C3)C(=O)N2C)cc1NS(=O)(=O)C(C)C` [Example 413, trans-N-{5-(7′-Fluoro-3-(isopropoxymethyl)-3′-methyl-2′-oxo-2′,3′-dihydrospiro[cyclobutane-1,1′-pyrrolo[2,3-c]quinolin]-8′-yl)-2-(2-(isopropylamino)ethoxy)pyridin-3-yl)propane-2-sulfonamide] and `CC(C)NCCOc1ncc(-c2cc3c(cc2F)ncc2c3[C@]3(C[C@@H](CN(C)C)C3)C(=O)N2C)cc1NS(C)(=O)=O` [Example 453, trans-N-(5-(3-((Dimethylamino)methyl)-7′-fluoro-3′-methyl-2′-oxo-2′,3′-dihydrospiro[cyclobutane-1,1′-pyrrolo[2,3-c]quinolin]-8′-yl)-2-(2-(isopropylamino)ethoxy)pyridin-3-yl)methanesulfonamide] fall in the same range of IC50: 0.001 to 0.1 µM for the first, 0.001 to 0.1 µM for the second.

`CC(C)NCCOc1ncc(-c2cc3c(cc2F)ncc2c3[C@]3(C[C@H](N4CCCCC4)C3)C(=O)N2C)cc1NS(C)(=O)=O` [Example 469, cis-N-(5-(7′-Fluoro-3′-methyl-2′-oxo-3-(piperidin-1-yl)-2′,3′-dihydrospiro[cyclobutane-1,1′-pyrrolo[2,3-c]quinolin]-8′-yl)-2-(2-(isopropylamino)ethoxy)pyridin-3-yl)methanesulfonamide] and `CC(C)NCCOc1ncc(-c2cc3c(cc2F)ncc2c3[C@]3(C[C@H](N4CCCC4)C3)C(=O)N2C)cc1NS(C)(=O)=O` [Example 467, cis-N-(5-(7′-Fluoro-3′-methyl-2′-oxo-3-(pyrrolidin-1-yl)-2′,3′-dihydrospiro[cyclobutane-1,1′-pyrrolo[2,3-c]quinolin]-8′-yl)-2-(2-(isopropylamino)ethoxy)pyridin-3-yl)methanesulfonamide] fall in the same range of IC50: 0.001 to 0.1 µM for the first, 0.001 to 0.1 µM for the second.

Compared with `CN(C)CCCOc1c(NS(C)(=O)=O)cc(-c2ccc3ncc4c(c3c2)C2(CCC2)C(=O)N4C)cc1C(N)=O` [Example 449, 2-(3-(Dimethylamino)propoxy)-5-(3′-methyl-2′-oxo-2′,3′-dihydrospiro[cyclobutane-1,1′-pyrrolo[2,3-c]quinolin]-8′-yl)-3-(methylsulfonamido)benzamide], `CC(C)NCCOc1ncc(-c2cc3c4c(cnc3cc2F)N(C)C(=O)C42CCC2)cc1NS(=O)(=O)C(F)F` [Example 368, 1,1-Difluoro-N-(5-(7′-fluoro-3′-methyl-2′-oxo-2′,3′-dihydrospiro[cyclobutane-1,1′-pyrrolo[2,3-c]quinolin]-8′-yl)-2-(2-(isopropylamino)ethoxy)pyridin-3-yl)methanesulfonamide] is higher in IC50: 0.001 to 0.1 µM for the first, over 0.1 µM for the second. The first is the more potent here.

`CC(C)NCCOc1ncc(-c2cc3c4c(cnc3cc2F)N(C)C(=O)C42CN(c3ccncc3)C2)cc1NS(C)(=O)=O` [Example 547, N-(5-(7′-Fluoro-3′-methyl-2′-oxo-1-(pyridin-4-yl)-2′,3′-dihydrospiro [azetidine-3,1′-pyrrolo[2,3-c]quinolin]-8′-yl)-2-(2-(isopropylamino)ethoxy)pyridin-3-yl)methanesulfonamide] and `CC(C)NCCOc1ncc(-c2cc3c4c(cnc3cc2F)N(C)C(=O)C42CN(c3nnnn3C)C2)cc1NS(C)(=O)=O` [Example 553, N-(5-(7′-Fluoro-3′-methyl-1-(1-methyl-1H-tetrazol-5-yl)-2′-oxo-2′,3′-dihydrospiro[azetidine-3,1′-pyrrolo[2,3-c]quinolin]-8′-yl)-2-(2-(isopropylamino)ethoxy)pyridin-3-yl)methanesulfonamide] cannot be ordered by IC50: over 0.1 µM for the first, over 0.1 µM for the second.

`CC(C)NCCOc1ncc(-c2cc3c4c(cnc3cc2F)N(C)C(=O)C42CN(C(=O)OC(C)C)C2)cc1NS(C)(=O)=O` [Example 514, Isopropyl 7′-fluoro-8′-(6-(2-(isopropylamino)ethoxy)-5-(methylsulfonamido)pyridin-3-yl)-3′-methyl-2′-oxo-2′,3′-dihydrospiro [azetidine-3,1′-pyrrolo[2,3-c]quinoline]-1-carboxylate] and `CC(C)NCCOc1ncc(-c2cc3c4c(cnc3cc2F)N(C)C(=O)C42COC2)cc1NS(C)(=O)=O` [Example 555, N-(5-(7′-Fluoro-3′-methyl-2′-oxo-2′,3′-dihydrospiro[oxetane-3,1′-pyrrolo[2,3-c]quinolin]-8′-yl)-2-(2-(isopropylamino)ethoxy)pyridin-3-yl)methanesulfonamide hydrochloride] fall in the same range of IC50: 0.001 to 0.1 µM for the first, 0.001 to 0.1 µM for the second.

`CC(C)NCCOc1ncc(-c2cc3c(cc2F)ncc2c3[C@]3(C[C@@H](Cc4ccccc4)C3)C(=O)N2C)cc1NS(C)(=O)=O` [Example 450, trans-N-(5-(3-Benzyl-7-fluoro-3′-methyl-2′-oxo-2′,3′-dihydrospiro [cyclobutane-1,1′-pyrrolo[2,3-c]quinolin]-8′-yl)-2-(2-(isopropylamino)ethoxy)pyridin-3-yl)methanesulfonamide] and `CC(C)NCCOc1ncc(-c2cc3c4c(cnc3cc2F)N(C)C(=O)C42CN([C@@H](C)c3ccccc3)C2)cc1NS(C)(=O)=O` [Example 493, (S)-N-(5-(7′-Fluoro-3′-methyl-2′-oxo-1-(1-phenylethyl)-2′,3′-dihydrospiro [azetidine-3,1′-pyrrolo[2,3-c]quinolin]-8′-yl)-2-(2-(isopropylamino)ethoxy)pyridin-3-yl)methanesulfonamide] fall in the same range of IC50: 0.001 to 0.1 µM for the first, 0.001 to 0.1 µM for the second.

`CC(C)NCCOc1ncc(-c2cc3c4c(cnc3cc2F)N(C)C(=O)C42CN(C3CCN(C)CC3)C2)cc1NS(C)(=O)=O` [Example 502, N-(5-(7′-Fluoro-3′-methyl-1-(1-methylpiperidin-4-yl)-2′-oxo-2′,3′-dihydrospiro[azetidine-3,1′-pyrrolo[2,3-c]quinolin]-8′-yl)-2-(2-(isopropylamino)ethoxy)pyridin-3-yl)methanesulfonamide] and `CC(C)NCCOc1ncc(-c2cc3c4c(cnc3cc2F)N(C)C(=O)C42CN(C3CCNCC3)C2)cc1NS(C)(=O)=O` [Example 501, N-(5-(7′-Fluoro-3′-methyl-2′-oxo-1-(piperidin-4-yl)-2′,3′-dihydrospiro[azetidine-3,1′-pyrrolo[2,3-c]quinolin]-8′-yl)-2-(2-(isopropylamino)ethoxy)pyridin-3-yl)methanesulfonamide] cannot be ordered by IC50: over 0.1 µM for the first, over 0.1 µM for the second.

`CN1C(=O)C2(CCC2)c2c1cnc1cc(F)c(-c3cnc(N4CC(N(C)C)C4)c(NS(=O)(=O)CC#N)c3)cc21` [Example 342, 1-Cyano-N-(2-(3-(dimethylamino)azetidin-1-yl)-5-(7′-fluoro-3′-methyl-2′-oxo-2′,3′-dihydrospiro [cyclobutane-1,1′-pyrrolo [2,3-c]quinolin]-8′-yl)pyridin-3-yl)methanesulfonamide hydrochloride] and `CC(C)NCCOc1ncc(-c2cc3c4c(cnc3cc2F)N(C)C(=O)C42CC3(CCNCC3)C2)cc1NS(C)(=O)=O` [Example 458, N-(5-(7′--Fluoro-3″-methyl-2″-oxo-2″,3″-dihydrodispiro [piperidine-4,1′-cyclobutane-31″-pyrrolo[2,3-c]quinolin]-8″-yl)-2-(2-(isopropylamino)ethoxy)pyridin-3-yl) methanesulfonamide] cannot be ordered by IC50: over 0.1 µM for the first, over 0.1 µM for the second.

`CC(C)NCCOc1ncc(-c2cc3c4c(cnc3cc2F)N(C)C(=O)C42CN([C@H]3CC[C@@H](O)CC3)C2)cc1NS(C)(=O)=O` [Example 504, N-(5-(7′-Fluoro-1-(cis-4-hydroxycyclohexyl)-3′-methyl-2′-oxo-2′,3′-dihydrospiro[azetidine-3,1′-pyrrolo[2,3-c]quinolin]-8′-yl)-2-(2-(isopropylamino)ethoxy)pyridin-3-yl)methanesulfonamide] and `CC(C)NCCOc1ncc(-c2cc3c4c(cnc3cc2F)N(C)C(=O)C42CN(c3nnn(C)n3)C2)cc1NS(C)(=O)=O` [Example 552, N-(5-(7′-Fluoro-3′-methyl-1-(2-methyl-2H-tetrazol-5-yl)-2′-oxo-2′,3′-dihydrospiro[azetidine-3,1′-pyrrolo[2,3-c]quinolin]-8′-yl)-2-(2-(isopropylamino)ethoxy)pyridin-3-yl)methanesulfonamide] cannot be ordered by IC50: over 0.1 µM for the first, over 0.1 µM for the second.
